In brackets after ≈: the same amount, converted by molar mass. Bridge positions count the residues as written; N and C are the ends. Square brackets hold non-standard residues; d marks the D form. Peptide text beside a SMILES is read from it. S5 = C=CCCC[C@](C)(N)C(=O)O
Experiments:
Pseudomonas aeruginosa [1] = assay: Antibacterial activity against Pseudomonas aeruginosa ATCC 27853 assessed as reduction in bacterial growth by broth microdilution method; type: functional
[2] = Hemolytic activity in human RBC assessed as hemolysis; type: toxicity, cell-based, Erythrocyte; conditions: red blood cells
Enterococcus faecium [3] = assay: Antibacterial activity against Enterococcus faecium ATCC 700221 assessed as reduction in bacterial cell growth by CLSI broth microdilution method; type: functional
Escherichia coli [4] = assay: Antibacterial activity against Escherichia coli ATCC 25922 assessed as bacterial growth inhibition measured after 48 hrs by resazurin assay; type: functional
Staphylococcus aureus [5] = assay: Antibacterial activity against Staphylococcus aureus ATCC 25923 assessed as reduction in bacterial growth incubated for 24 hrs by serial dilution method; type: functional
Staphylococcus aureus [6] = assay: Antibacterial activity against methicillin-resistant Staphylococcus aureus ATCC BAA1720 assessed as bacterial growth inhibition measured for 18 hrs by CLSI-protocol based Mueller-Hinton Broth micro-dilution assay; type: functional
Bacillus subtilis [7] = assay: Antibacterial activity against Bacillus subtilis 168 assessed as bacterial growth inhibition measured for 18 hrs by CLSI-protocol based Mueller-Hinton Broth micro-dilution assay; type: functional
Staphylococcus aureus [8] = assay: Antibacterial activity against Staphylococcus aureus ATCC 29213 assessed as bacterial growth inhibition measured for 18 hrs by CLSI-protocol based Mueller-Hinton Broth micro-dilution assay; type: functional
Pseudomonas aeruginosa [9] = assay: Antibacterial activity against Pseudomonas aeruginosa ATCC 27853 assessed as bacterial growth inhibition measured for 18 hrs by CLSI-protocol based Mueller-Hinton Broth micro-dilution assay; type: functional
Pseudomonas aeruginosa [10] = assay: Antibacterial activity against Pseudomonas aeruginosa PAO1 assessed as bacterial growth inhibition measured for 18 hrs by CLSI-protocol based Mueller-Hinton Broth micro-dilution assay; type: functional
Salmonella typhimurium = assay: Antibacterial activity against Salmonella enterica subsp. enterica serovar Typhimurium LT2 assessed as bacterial growth inhibition measured for 18 hrs by CLSI-protocol based Mueller-Hinton Broth micro-dilution assay; type: functional
Escherichia coli [11] = assay: Antibacterial activity against Escherichia coli MG1655 assessed as bacterial growth inhibition measured for 18 hrs by CLSI-protocol based Mueller-Hinton Broth micro-dilution assay; type: functional
Erythrocyte = assay: Hemolytic activity in sheep RBC incubated for 30 mins; type: toxicity, cell-based, Ovis aries; conditions: 0.5 h
Escherichia coli [12] = assay: Antibacterial activity against Escherichia coli K12 assessed as bacterial growth inhibition measured for 18 hrs by CLSI-protocol based Mueller-Hinton Broth micro-dilution assay; type: functional
Bacillus subtilis [13] = assay: Antibacterial activity against Bacillus subtilis ATCC 23857 assessed as reduction in bacterial cell growth incubated for 24 hrs by broth micro-dilution analysis; type: functional
Escherichia coli [14] = assay: Antibacterial activity against Escherichia coli DH5alpha assessed as bacterial growth inhibition; type: functional
[15] = Hemolytic activity in human RBC assessed as hemolysis measured after 24 hrs; type: toxicity, cell-based, Erythrocyte; conditions: red blood cells
Bacillus subtilis [16] = assay: Antibacterial activity against Bacillus subtilis assessed as reduction in bacterial growth incubated for 24 hrs by broth microdilution assay; type: functional
Enterococcus faecium [17] = assay: Antibacterial activity against vancomycin resistant Enterococcus faecium ATCC 700221 assessed as inhibition of bacterial growth incubated for 48 hrs by CLSI-based broth microdilution assay; type: functional
Escherichia coli [18] = assay: Antibacterial activity against Escherichia coli ATCC 25922 assessed as reduction in microbial growth incubated for 16 to 20 hrs by CLSI protocol based Muller Hinton broth assay; type: functional; conditions: time 16-20 hrs
Staphylococcus aureus [19] = assay: Antibacterial activity against methicillin-resistant Staphylococcus aureus ATCC 33591 assessed as reduction in bacterial growth incubated for 18 hrs by agar dilution method; type: functional
Pseudomonas aeruginosa [20] = assay: Antibacterial activity against Pseudomonas aeruginosa ATCC 27853 assessed as reduction in microbial growth incubated for 16 to 20 hrs by CLSI protocol based Muller Hinton broth assay; type: functional; conditions: time 16-20 hrs
[21] = system: Mycolicibacterium smegmatis; assay: Antimycobacterial activity against Mycobacterium smegmatis mc2 155 assessed as reduction in bacterial cell growth by resazurin reduction method; type: functional
Klebsiella pneumoniae = assay: Antibacterial activity against Klebsiella pneumoniae ATCC 700603 assessed as reduction in bacterial growth measured after 18 to 24 hrs by CLSI protocol-based Mueller-Hinton broth dilution method; type: functional; conditions: time 18-24 hrs
Staphylococcus aureus [22] = assay: Antibacterial activity against Methicillin-resistant Staphylococcus aureus 936 assessed as bacterial growth inhibition measured for 18 hrs by CLSI-protocol based Mueller-Hinton Broth micro-dilution assay; type: functional
Escherichia coli [23] = assay: Antibacterial activity against multi-drug resistant Escherichia coli clinical isolate 850 assessed as reduction in bacterial growth measured after 18 to 24 hrs by CLSI protocol-based Mueller-Hinton broth dilution method; type: functional; conditions: time 18-24 hrs
Acinetobacter baumannii = assay: Antibacterial activity against multi-drug resistant Acinetobacter baumannii clinical isolate 9840 assessed as reduction in bacterial growth measured after 18 to 24 hrs by CLSI protocol-based Mueller-Hinton broth dilution method; type: functional; conditions: time 18-24 hrs
Staphylococcus aureus [24] = assay: Antibacterial activity against Staphylococcus aureus ATCC 25923 assessed as bacterial growth inhibition measured for 18 hrs by CLSI-protocol based Mueller-Hinton Broth micro-dilution assay; type: functional
Staphylococcus aureus [25] = assay: Antibacterial activity against Staphylococcus aureus ATCC 25923 assessed as reduction in bacterial growth measured after 18 to 24 hrs by CLSI protocol-based Mueller-Hinton broth dilution method; type: functional; conditions: time 18-24 hrs
Pseudomonas aeruginosa [26] = assay: Antibacterial activity against multi-drug resistant Pseudomonas aeruginosa clinical isolate 119 assessed as reduction in bacterial growth measured after 18 to 24 hrs by CLSI protocol-based Mueller-Hinton broth dilution method; type: functional; conditions: time 18-24 hrs
Bacillus subtilis [27] = assay: Antibacterial activity against Bacillus subtilis ATCC 23857 assessed as reduction in bacterial growth measured after 18 to 24 hrs by CLSI protocol-based Mueller-Hinton broth dilution method; type: functional; conditions: time 18-24 hrs

CC[C@H](C)[C@H](NC(=O)[C@H](CCCNC(=N)N)NC(=O)[C@H](CCCCN)NC(=O)[C@H](CC(C)C)NC(=O)[C@H](CC(C)C)NC(=O)CN)C(=O)N[C@@H](CCCCN)C(=O)N[C@@H](CCCCN)C(=O)N[C@@H](CC(C)C)C(=O)N[C@@H](CC(C)C)C(N)=O (H-GLLKRIKKLL-NH2)
MIC (Pseudomonas aeruginosa [1]): 28.4 µM (≈ 33.5 µg/mL) | HC50 [2]: > 312 µM | MIC (Enterococcus faecium [3]): 66.3 µM (≈ 78.3 µg/mL) | MIC (Escherichia coli [4]): 8.5 µM (≈ 10 µg/mL) | MIC (Staphylococcus aureus [5]): 4.2 µM (≈ 4.96 µg/mL)

CC[C@H](C)[C@@H]1NC(=O)[C@@](C)(NC(=O)[C@H](CCCCN)NC(=O)[C@H](CC(C)C)NC(=O)[C@H](CC(C)C)NC(=O)CN)CCC/C=C\CCC[C@@](C)(C(=O)N[C@@H](CC(C)C)C(N)=O)NC(=O)[C@H]([C@@H](C)O)NC(=O)[C@H](CCCCN)NC1=O (H-GLLK[S5]IKT[S5]L-NH2; staple (Z) 5-9)
MIC (Staphylococcus aureus [6]): 4 µM (≈ 4.54 µg/mL) | MIC (Bacillus subtilis [7]): 4 µM (≈ 4.54 µg/mL) | MIC (Staphylococcus aureus [8]): 4 µM (≈ 4.54 µg/mL) | MIC (Pseudomonas aeruginosa [9]): 32 µM (≈ 36.3 µg/mL) | MIC (Pseudomonas aeruginosa [10]): 16 µM (≈ 18.2 µg/mL) | MIC (Salmonella typhimurium): 32 µM (≈ 36.3 µg/mL) | MIC (Escherichia coli [11]): 32 µM (≈ 36.3 µg/mL) | HC10 (Erythrocyte): 8 µM | MIC (Escherichia coli [12]): 8 µM (≈ 9.08 µg/mL)

CC[C@H](C)[C@H](NC(=O)[C@H](CCCNC(=N)N)NC(=O)[C@H](CCCCN)NC(=O)[C@H](CC(C)C)NC(=O)[C@H](CC(C)C)NC(=O)CN)C(=O)N[C@@H](CCCCN)C(=O)N[C@H](C(=O)N[C@@H](CC(C)C)C(=O)N[C@@H](CC(C)C)C(N)=O)[C@@H](C)O [ANOPLIN]
MIC (Bacillus subtilis [13]): 43.4 µM (≈ 50.1 µg/mL) | MIC (Escherichia coli [14]): 86.7 µM (≈ 100 µg/mL)

CC[C@H](C)[C@H](NC(=O)[C@H](Cc1ccccc1)NC(=O)[C@H](CCCCN)NC(=O)[C@H](CC(C)C)NC(=O)[C@H](CC(C)C)NC(=O)CN)C(=O)N[C@@H](CCCCN)C(=O)N[C@@H](CCCCN)C(=O)N[C@@H](CC(C)C)C(=O)N[C@@H](CC(C)C)C(N)=O (H-GLLKFIKKLL-NH2)
HC50 at 24 h [15]: 13.6 µM | MIC (Bacillus subtilis [16]): 25.6 µM (≈ 30 µg/mL) | MIC (Enterococcus faecium [17]): 9.5 µM (≈ 11.1 µg/mL) | MIC (Escherichia coli [18]): 9.5 µM | MIC (Staphylococcus aureus [19]): 9.5 µM (≈ 11.1 µg/mL) | MIC (Pseudomonas aeruginosa [20]): 28.4 µM | MIC [21]: 12.8 µM (≈ 15 µg/mL)

CC[C@H](C)[C@H](NC(=O)[C@H](CCCNC(=N)N)NC(=O)[C@@H](CCCCN)NC(=O)[C@H](CC(C)C)NC(=O)[C@H](CC(C)C)NC(=O)CNC(=O)[C@H](CCCCn1cc(CC(NC(=O)[C@H](CC(C)C)NC(=O)[C@H](CC(C)C)NC(=O)[C@@H](NC(=O)[C@@H](CCCCN)NC(=O)[C@@H](NC(=O)[C@H](CCCNC(=N)N)NC(=O)[C@@H](CCCCN)NC(=O)[C@H](CC(C)C)NC(=O)[C@H](CC(C)C)NC(=O)CNC(C)=O)[C@@H](C)CC)[C@@H](C)O)C(N)=O)nn1)NC(C)=O)C(=O)N[C@H](CCCCN)C(=O)N[C@H](C(=O)N[C@@H](CC(C)C)C(=O)N[C@@H](CC(C)C)C(N)=O)[C@@H](C)O (stereo partly specified)
MIC (Klebsiella pneumoniae): 32 µM (≈ 84.5 µg/mL) | MIC (Staphylococcus aureus [22]): 64 µM (≈ 169 µg/mL) | MIC (Escherichia coli [23]): 32 µM (≈ 84.5 µg/mL) | MIC (Acinetobacter baumannii): 4 µM (≈ 10.6 µg/mL) | MIC (Staphylococcus aureus [24]): 64 µM (≈ 169 µg/mL) | MIC (Staphylococcus aureus [25]): 128 µM (≈ 338 µg/mL) | MIC (Pseudomonas aeruginosa [26]): 16 µM (≈ 42.2 µg/mL) | MIC (Bacillus subtilis [27]): 2 µM (≈ 5.28 µg/mL)
